Values belong to the sequence of their own block, whether it stands above or below them.
What was measured:
[1] = molecular target: T1, Scribble PDZ1 (Homo sapiens, UniProt Q14160); assay: Pre-phosphorylation ProP-PD: wild-type library treated with RPS6KA1 or not, selection with NGS; assay type: binding; settings: mean of the two selections, bait Scribble PDZ1; for Phosphorylated selection Mean fraction: Pre-phosphorylation with RPS6KA1; for Unphosphorylated selection Mean fraction: Without Kinase
T1 construct: human Scribble PDZ1 aa 719–829 in; made in house; host or cells: E. coli BL21 Gold (DE3)
T1 sequence (Q14160 719-829): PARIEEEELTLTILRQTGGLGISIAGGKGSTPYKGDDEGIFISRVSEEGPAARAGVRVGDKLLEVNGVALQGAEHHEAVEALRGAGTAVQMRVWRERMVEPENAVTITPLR
Protocol: For pre‐phosphorylation of the wild‐type ProP‐PD library, we obtained activated RPS6KA1 (Thermo Fisher). The time and amount of kinase required to phosphorylate the ProP‐PD library were tested in a phosphorylation assay.
(§1) Phage selections were carried out for four rounds following a protocol by Huang and Sidhu (Huang & Sidhu, 2011) with minor modifications. Non‐specific binding phage was removed by pre‐selections against immobilized GST throughout the selection. The selections against the (pre‐)phosphorylated wild‐type library were performed in 50 mM HEPES (pH 7.4) and 150 mM NaCl (HBS) following the same procedure after pre‐phosphorylation of the library.
(§2) • Immobilize proteins (15 μg in 100 μl PBS) in a 96‐well MaxiSorp microtiter plate (NUNC) overnight at 4°C. • Start a 2YT culture of E. coli Omnimax supplemented with 100 μg/ml tetracycline to retain the F pilus epitope. • Block the wells with 200 μl 0.5% BSA in PBS for 2 h at 4°C. • Precipitate naïve phage library (10^11 cfu per selection) or amplified phage pool from the previous round of selection by adding one‐fifth the volume of PEG/NaCl. • Incubate on ice for 10 min, and pellet precipitated phage by centrifugation at 5,300 g for 15 min. Resuspend the phage pellet in 100 μl PBS per selection. • Add 100 μl of phage solution to the GST‐coated pre‐selection wells and incubate for 1 h. • Transfer the phage solution to the immobilized target proteins and allow it to bind for 2 h at 8°C. • Wash the plate four times with 200 μl cold wash buffer (PBS, 0.05% Tween‐20). • Elute bound phage by incubation with 100 μl log phase (0.6–0.8 OD600) E. coli Omnimax for 30 min at 37°C with shaking (200 RPM). • Add 10^12 cfu/ml M13K07 helper phage for hyperinfection of the bacteria and incubate as above for 45 min. • Transfer the bacterial culture to 10 ml 2YT supplemented with 50 μg/ml carbenicillin, 25 μg/ml kanamycin, and 300 μM IPTG and incubate overnight at 37°C while shaking. • Perform phage pool ELISA to monitor the progress of the selection as described previously (Huang & Sidhu, 2011).
• Precipitate the naive wild‐type phage library (as described above, 1.8 × 10^10 cfu phage per selection). • Resuspend the precipitated phage pellets in 100 μl Kinase buffer per selection and add ATP (100 μM final concentration) and RPS6KA1 (500 ng/ml) to the phage solution. In parallel, prepare a negative control where only ATP is added to the phage pool. • Incubate the phosphorylation reaction for 2 h at room temperature. Stop the reaction through PEG/NaCl precipitation (as described above). • Resuspend the phage pool in 100 μl HBS.
During the 4 days of pre‐phosphorylation ProP‐PD selections, the input phage library of each day of selection was subjected to phosphorylation prior to phage selection.
(§3) The naïve library and the enriched phage pools of the third day of selection were amplified and barcoded by PCR and analyzed by NGS as described elsewhere (McLaughlin & Sidhu, 2013; Ivarsson et al, 2014). The reads were demultiplexed using the barcode sequences and filtered by discarding sequences with a Phred quality score under 30. Sequences were mapped to the original library using Bowtie (Langmead et al, 2009) with two mismatches between reads and library sequence. Nucleotide mutations leading to amino acid substitutions were subsequently removed. Cutoff values of NGS counts were assigned for each pool. PWMs were generated based on the remaining peptides (aligned on the C‐termini) using WebLogo (Crooks et al, 2004).

[2] = test system: DLG1 PDZ3; assay: Phosphomimetic ProP-PD selection with NGS; assay type: binding, human; settings: mean of selections 1-3; bait DLG1 PDZ3
Protocol: as §1, §2, §3
(§4) However, there was no significant correlation of the actual read counts (selection “strength”) and the initial representation in the library, reflecting the strong selection during phage display (wt+mimetic: P‐value: 0.49, ρ = −0.08, mimetic only: P‐value: 0.069, ρ = −0.2, wt only: P‐value: 0.12, ρ = 0.17). Consequently, the amount of reads for each binder after phage display is not a function of the amount of input reads in the naïve library and no modeling based on the input library frequencies to score the interactions is necessary. To allow for comparison between replicate selections, we used the fraction of NGS reads within a certain set, instead of the absolute number of NGS reads, as the absolute numbers differ between different NGS batches.

[3] = test system: DLG1 PDZ1; assay: Phosphomimetic ProP-PD selection with NGS; assay type: binding, human; settings: mean of selections 1-3, bait DLG1 PDZ1; for Mean fraction #NGS counts mimetic peptide / total count selection: phosphomimetic peptide; for Mean fraction #NGS counts wt peptide / total counts selection: wild type peptide
Protocol: as §1, §2, §3, §4

[4] = molecular target: T2, DLG1 PDZ2 (Homo sapiens, UniProt Q12959); assay: Phosphomimetic ProP-PD selection with NGS; assay type: binding; settings: mean of selections 1-3, bait DLG1 PDZ2
T2 construct: human DLG1 PDZ2 aa 311–407 in a modified pRSET vector 40; made in house; host or cells: E. coli BL21 Gold (DE3)
T2 sequence (Q12959 311-407): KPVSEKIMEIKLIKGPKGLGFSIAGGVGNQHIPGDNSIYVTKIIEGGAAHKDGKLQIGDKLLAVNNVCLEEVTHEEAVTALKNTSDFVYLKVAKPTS
Protocol: as §1, §2, §3, §4

[5] = test system: Scribble PDZ3; assay: Phosphomimetic ProP-PD selection with NGS; assay type: binding, human; settings: mean over selections 1-3; bait Scribble PDZ3
Protocol: as §1, §2, §3, §4

[6] = molecular target: T1, Scribble PDZ1; assay: Phosphomimetic ProP-PD selection with NGS; assay type: binding; settings: bait Scribble PDZ1; mean of selections 1-3
Protocol: as §1, §2, §3, §4

[7] = test system: Scribble PDZ2; assay: Phosphomimetic ProP-PD selection with NGS; assay type: binding, human; settings: bait Scribble PDZ2; mean of selections 1 and 2 (selection 3 empty)
Protocol: as §1, §2, §3, §4

Sequence: RATSPGSGL
- Mean fraction #NGS counts wt peptide / total counts selection [2]: 0.001731

Sequence: KSEPFLTWL [WWTR1]
- Phosphorylated selection Mean fraction [1]: 1.399e-5
- Unphosphorylated selection Mean fraction [1]: 1.381e-5

Sequence: PANRRETPV
- Mean fraction #NGS counts mimetic peptide / total count selection [3]: 3.546e-5
- Mean fraction #NGS counts mimetic peptide / total count selection [2]: 0.0003587

Sequence: YEPSMEMSV
- Mean fraction #NGS counts mimetic peptide / total count selection [2]: 0.001067

Sequence: KGRAKGTPV
- Mean fraction #NGS counts wt peptide / total counts selection [2]: 0.0008774

Sequence: PANRRTTPV
- Mean fraction #NGS counts wt peptide / total counts selection [3]: 0
- Mean fraction #NGS counts wt peptide / total counts selection [2]: 0

Sequence: SRDRKETSI
- Mean fraction #NGS counts wt peptide / total counts selection [4]: 0.0004401
- Mean fraction #NGS counts wt peptide / total counts selection [2]: 0.002721
- Mean fraction #NGS counts wt peptide / total counts selection [5]: 0.00255

Sequence: TNSSSYEHI
- Mean fraction #NGS counts mimetic peptide / total count selection [2]: 0

Sequence: RPYRREEEI
- Mean fraction #NGS counts mimetic peptide / total count selection [2]: 0
- Mean fraction #NGS counts mimetic peptide / total count selection [5]: 0

Sequence: RATEPGSGL
- Mean fraction #NGS counts mimetic peptide / total count selection [2]: 0

Sequence: GGKRKETLV
- Mean fraction #NGS counts wt peptide / total counts selection [4]: 0.3203
- Mean fraction #NGS counts wt peptide / total counts selection [3]: 0.3267
- Mean fraction #NGS counts wt peptide / total counts selection [2]: 0.06478
- Mean fraction #NGS counts wt peptide / total counts selection [5]: 6.172e-5

The next lines start with results.

- Phosphorylated selection Mean fraction [1]: 0.0009701
- Unphosphorylated selection Mean fraction [1]: 0.003212
Sequence: PIHSLETSL [ATP2B2]

- Mean fraction #NGS counts wt peptide / total counts selection [4]: 0.001671
Sequence: RQTSYQGVL
- Mean fraction #NGS counts wt peptide / total counts selection [2]: 0.008629

- Mean fraction #NGS counts mimetic peptide / total count selection [4]: 0.009109
- Mean fraction #NGS counts mimetic peptide / total count selection [6]: 0.0006725
Sequence: RSRSIETDV
- Mean fraction #NGS counts mimetic peptide / total count selection [3]: 0.001793
- Mean fraction #NGS counts mimetic peptide / total count selection [7]: 0.06648
- Mean fraction #NGS counts mimetic peptide / total count selection [5]: 0.001306

- Mean fraction #NGS counts mimetic peptide / total count selection ([4]; phosphomimetic peptide): 0.0001273
- Mean fraction #NGS counts mimetic peptide / total count selection [6]: 0.0009157
Sequence: KREFIESNV
- Mean fraction #NGS counts mimetic peptide / total count selection [3]: 2.37e-6
- Mean fraction #NGS counts mimetic peptide / total count selection [7]: 0.003418
- Mean fraction #NGS counts mimetic peptide / total count selection [5]: 0.005112

- Mean fraction #NGS counts mimetic peptide / total count selection [4]: 0
- Mean fraction #NGS counts wt peptide / total counts selection [4]: 3.461e-5
Sequence: RPYRRESEI
- Mean fraction #NGS counts wt peptide / total counts selection [2]: 2.154e-5
- Mean fraction #NGS counts wt peptide / total counts selection [5]: 9.302e-5

- Phosphorylated selection Mean fraction [1]: 0.0002294
- Unphosphorylated selection Mean fraction [1]: 0.0001256
Sequence: DKESFLTWL [YAP1]

- Phosphorylated selection Mean fraction [1]: 2.797e-5
- Unphosphorylated selection Mean fraction [1]: 9.668e-6
Sequence: TALKVMTMV [DACT2]

- Phosphorylated selection Mean fraction [1]: 0.05157
- Unphosphorylated selection Mean fraction [1]: 0.03077
Sequence: SARLWETSI [ADAM22]

- Phosphorylated selection Mean fraction [1]: 0
- Unphosphorylated selection Mean fraction [1]: 2.348e-5
Sequence: RSRSISTDV [FAM163B]

- Phosphorylated selection Mean fraction [1]: 0.0003108
- Unphosphorylated selection Mean fraction [1]: 1.381e-5
Sequence: PLHSLETSL [ATP2B1]

— paper PMC6100724, “Proteome‐wide analysis of phospho‐regulated PDZ domain interactions” (Molecular Systems Biology, 2018)
